In patent US20090270350A1, “Pyridinone Pyrazole Urea and Pyrimidinone Pyrazole Urea Derivatives” (PFIZER INC., priority 2006, published 2009) one finds IC50 data, which are given here for 20 molecules.

pIC50: −log10 of the molar value.

Chain of p38α (Q16539 whole entry): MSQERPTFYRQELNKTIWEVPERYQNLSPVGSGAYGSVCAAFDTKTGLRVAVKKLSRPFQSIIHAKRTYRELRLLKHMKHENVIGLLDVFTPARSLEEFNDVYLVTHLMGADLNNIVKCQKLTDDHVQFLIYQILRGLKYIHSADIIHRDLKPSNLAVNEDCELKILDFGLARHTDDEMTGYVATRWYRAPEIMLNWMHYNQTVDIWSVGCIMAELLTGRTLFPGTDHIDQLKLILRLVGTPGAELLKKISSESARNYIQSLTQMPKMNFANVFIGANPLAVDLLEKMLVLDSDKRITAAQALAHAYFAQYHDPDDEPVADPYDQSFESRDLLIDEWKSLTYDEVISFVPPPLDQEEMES

The first assay addresses p38α (Homo sapiens, UniProt Q16539). Description: p38α/MK2 cascade assay. It is filed as biochemical. Conditions: Table 1; inhibitors preincubated with p38α for 40 minutes; phosphorylation of Hsp27 peptide by MK-2, Caliper LabChip 3000; read-out: p38a/MK2 Cascade 40 min Pre-Incuabtion (% Inhibition): IC50. The procedure:
The ability of compounds to inhibit activated p38α was determined in a p38α/MK-2 cascade assay format. The kinase activity of p38α is determined by its ability to phosphorylate/activate nonactive MK2 (54-400). Activation of MK-2 by p38α is measured by following the phosphorylation of a MK-2 specific peptide, Hsp27 peptide (FITC-KKKALSRQLSVAA). The phosphorylation of the Hsp27 peptide was quantified using the Caliper LabChip 3000. The kinase reactions were carried out in 20 mM HEPES pH 7.5, 10 mM MgCl2, 0.0005% Tween-20, 0.01% BSA, 1 mM DTT, and 2% DMSO. The inhibitors were varied between 1000-0.05 nM, while the Hsp27 peptide substrate, MgATP, and nonactive MK-2 (54-400) were held constant at 0.5 µM, 5 µM, and 1 nM, respectively. Inhibitors were preincubated with p38α for 40 minutes prior to initiating the reaction with peptide, MgATP, and MK-2. The kinase reactions were quenched after 60 minutes by the addition of stop buffer (180 mM HEPES, 30 mM EDTA, and 0.2% Coating Reagent-3).
The above protocol assay was used to determine the IC50 values for some of the compounds in the above Examples.
IC50 values were determined for the compounds listed in Table 2, using the same p38α/MK2 cascade assay used to determine the IC50 values for the compounds in Table 1. The compounds of Table 2 were prepared using methods similar to those listed in the Examples for compounds of Table 1.
For the molecule `COc1cccc(Cn2c(C)cc(OCc3ccc(F)cc3CNC(=O)Nc3cc(C(C)(C)C)nn3-c3ccc(O[Si](C)(C)C(C)(C)C)c(Cl)c3)c(Cl)c2=O)c1` [Example 42, 1-[3-tert-butyl-1-(4-{[tert-butyl(dimethyl)silyl]oxy}-3-chlorophenyl)-1H-pyrazol-5-yl]-3-[2-({[3-chloro-1-(3-methoxybenzyl)-6-methyl-2-oxo-1,2-dihydropyridin-4-yl]oxy}methyl)-5-fluorobenzyl]urea], the pIC50 is 6.94.

Regarding `COc1cccc(-n2nc(C(C)(C)C)cc2NC(=O)NCc2ccccc2COc2cc(C)n(Cc3ccc(OC)cc3OC)c(=O)c2C)c1` [Example 123, 1-[3-tert-butyl-1-(3-methoxyphenyl)-1H-pyrazol-5-yl]-3-[2-({[1-(2,4-dimethoxybenzyl)-3,6-dimethyl-2-oxo-1,2-dihydropyridin-4-yl]oxy}methyl)benzyl]urea], the pIC50 was 7.95.

`CCc1c(OCc2ccccc2CNC(=O)Nc2cc(C(C)(C)C)nn2-c2ccc(C)cc2)ncn(Cc2ccc(OC)cc2)c1=O` [Example 114, 1-[3-tert-butyl-1-(4-methylphenyl)-1H-pyrazol-5-yl]-3-[2-({[5-ethyl-1-(4-methoxybenzyl)-6-oxo-1,6-dihydropyrimidin-4-yl]oxy}methyl)benzyl]urea]: the pIC50 was 7.79.

With `COc1ccc(Cn2c(C)cc(OCc3ccccc3CNC(=O)Nc3cc(C(C)(C)C)nn3-c3ccc(C)cc3)c(Br)c2=O)cc1` [Example 101, 1-[2-({[3-bromo-1-(4-methoxybenzyl)-6-methyl-2-oxo-1,2-dihydropyridin-4-yl]oxy}methyl)benzyl]-3-[3-tert-butyl-1-(4-methylphenyl)-1H-pyrazol-5-yl]urea], the pIC50 was 8.09.

With `COc1cccc(Cn2c(C)cc(OCc3ccc(F)cc3CNC(=O)Nc3cc(C(C)(C)C)nn3-c3cccc(OCCOC4CCCCO4)c3)cc2=O)c1` (centres unmarked) [Example 34, 1-(3-tert-butyl-1-{3-[2-(tetrahydro-2H-pyran-2-yloxy)ethoxy]phenyl}-1H-pyrazol-5-yl)-3-[5-fluoro-2-({[1-(3-methoxybenzyl)-6-methyl-2-oxo-1,2-dihydropyridin-4-yl]oxy}methyl)benzyl]urea], the pIC50 was 6.58.

`Cc1ccc(C(=O)NCCO)cc1-n1c(C)cc(OCc2ccc(F)cc2CNC(=O)Nc2cc(C(C)(C)C)nn2-c2cccc(Cl)c2)c(Cl)c1=O` [Example 195, 3-{4-[(2-{[({[3-tert-butyl-1-(3-chlorophenyl)-1H-pyrazol-5-yl]amino}carbonyl)amino]methyl}-4-fluorobenzyl)oxy]-3-chloro-6-methyl-2-oxopyridin-1(2H)-yl}-N-(2-hydroxyethyl)-4-methylbenzamide]: the pIC50 was 8.41.

`COc1ccc(Cn2c(C)cc(OCc3ccccc3CNC(=O)Nc3cc(C(C)(C)C)nn3-c3ccc(O)c(Cl)c3)cc2=O)cc1` [Example 56, 1-[3-tert-butyl-1-(3-chloro-4-hydroxyphenyl)-1H-pyrazol-5-yl]-3-[2-({[1-(4-methoxybenzyl)-6-methyl-2-oxo-1,2-dihydropyridin-4-yl]oxy}methyl)benzyl]urea]: the pIC50 is 7.41.

For `COc1ccc(Cn2c(C)cc(OCc3ccccc3CNC(=O)Nc3cc(C(C)(C)C)nn3-c3ccc(Cl)c(O)c3)c(Cl)c2=O)cc1Cl` [Example 67, 1-[3-tert-butyl-1-(4-chloro-3-hydroxyphenyl)-1H-pyrazol-5-yl]-3-[2-({[3-chloro-1-(3-chloro-4-methoxybenzyl)-6-methyl-2-oxo-1,2-dihydropyridin-4-yl]oxy}methyl)benzyl]urea], the pIC50 is 8.10.

Turning to `COc1ccc(Cn2c(C)cc(OCc3ccccc3CNC(=O)Nc3cc(C(C)(C)C)nn3-c3cccc(OC)c3)c(Br)c2=O)cc1` [Example 99, 1-[2-({[3-bromo-1-(4-methoxybenzyl)-6-methyl-2-oxo-1,2-dihydropyridin-4-yl]oxy}methyl)benzyl]-3-[3-tert-butyl-1-(3-methoxyphenyl)-1H-pyrazol-5-yl]urea], the pIC50 was 8.46.

Consider `COc1ccc(Cn2c(C)cc(OCc3ccccc3CNC(=O)Nc3cc(C4CC4)nn3-c3ccccc3)c(Br)c2=O)cc1` [Example 102, 1-[2-({[3-bromo-1-(4-methoxybenzyl)-6-methyl-2-oxo-1,2-dihydropyridin-4-yl]oxy}methyl)benzyl]-3-(3-cyclopropyl-1-phenyl-1H-pyrazol-5-yl)urea], for which the pIC50 was 6.74.

With `COc1ccc(Cn2c(C)cc(OCc3ccccc3CNC(=O)Nc3cc(C(C)(C)C)nn3-c3ccc(O)c(Cl)c3)c(Cl)c2=O)cc1` [Example 58, 1-[3-tert-butyl-1-(3-chloro-4-hydroxyphenyl)-1H-pyrazol-5-yl]-3-[2-({[3-chloro-1-(4-methoxybenzyl)-6-methyl-2-oxo-1,2-dihydropyridin-4-yl]oxy}methyl)benzyl]urea], the pIC50 is 8.34.

For the molecule `COc1cccc(Cn2c(C)cc(OCc3ccc(F)cc3CNC(=O)Nc3cc(C(C)(C)C)nn3-c3ccc(Cl)c(O)c3)c(Cl)c2=O)c1` [Example 45, 1-[3-tert-butyl-(4-chloro-3-hydroxyphenyl)-1H-pyrazol-5-yl]-3-[2-({[3-chloro-1-(3-methoxybenzyl)-6-methyl-2-oxo-1,2-dihydropyridin-4-yl]oxy}methyl)-5-fluorobenzyl]urea], the pIC50 was 8.21.

As to `COc1ccc(Cn2c(C)cc(OCc3ccccc3CNC(=O)Nc3cc(C(C)(C)C)nn3-c3ccccc3)c(Br)c2=O)c(OC)c1` [Example 120, 1-[2-({[3-bromo-1-(2,4-dimethoxybenzyl)-6-methyl-2-oxo-1,2-dihydropyridin-4-yl]oxy}methyl)benzyl]-3-(3-tert-butyl-1-phenyl-1H-pyrazol-5-yl)urea], the pIC50 was 7.81.

Regarding `COC(=O)c1ccc(C)c(-n2c(C)cc(OCc3ccc(F)cc3CNC(=O)Nc3cc(C(C)(C)C)nn3-c3cccc(Cl)c3)c(Cl)c2=O)c1` [Example 182, Methyl 3-{4-[(2-{[({[3-tert-butyl-1-(3-chlorophenyl)-1H-pyrazol-5-yl]amino}carbonyl)amino]methyl}-4-fluorobenzyl)oxy]-3-chloro-6-methyl-2-oxopyridin-1(2H)-yl}-4-methylbenzoate], the pIC50 is 8.40.

Turning to `Cc1ccc(-n2nc(C(C)(C)C)cc2NC(=O)NCc2ccccc2COc2cc(C)n(Cc3ccccc3)c(=O)c2C)cc1` [Example 128-C, 1-(2-{[(1-benzyl-3,6-dimethyl-2-oxo-1,2-dihydropyridin-4-yl)oxy]methyl}benzyl)-3-[3-tert-butyl-1-(4-methylphenyl)-1H-pyrazol-5-yl]urea], the pIC50 was 7.92.

Still in this assay, the particulars now being: Table 2; same p38α/MK2 cascade assay; 40 minutes preincubation; read-out: p38a/MK2 Cascade 40 min Pre-Incuabtion (% Inhibition): IC50.
Take `COc1ccccc1Cn1c(C)cc(OCc2ccccc2CNC(=O)Nc2cc(C(C)(C)C)nn2-c2ccc(O)c(Cl)c2)c(C)c1=O` [Example 264, 1-[3-tert-butyl-1-(3-chloro-4-hydroxyphenyl)-1H-pyrazol-5-yl]-3-[2-({[1-(2-methoxybenzyl)-3,6-dimethyl-2-oxo-1,2-dihydro-pyridin-4-yl]oxy}methyl)benzyl]urea]: the pIC50 was 7.56.

On to `COC(=O)c1ccc(C)c(-n2c(C)cc(OCc3ccccc3CNC(=O)Nc3cc(C(C)(C)C)nn3-c3cccc(OCCO)c3)c(Cl)c2=O)c1` [Example 209, methyl 3-[4-{[2-({[({3-tert-butyl-1-[3-(2-hydroxyethoxy)-phenyl]-1H-pyrazol-5-yl}amino)carbonyl]-amino}methyl)-benzyl]oxy}-3-chloro-6-methyl-2-oxopyridin-1(2H)-yl]-4-methylbenzoate], for which the pIC50 was 8.42.

Turning to `COc1ccc(Cn2c(C)cc(OCc3ccccc3CNC(=O)Nc3cc(C(C)(C)C)nn3-c3cccc(O)c3)c(C)c2=O)cc1C#N` [Example 252, 1-[3-tert-butyl-1-(3-hydroxyphenyl)-1H-pyrazol-5-yl]-3-[2-({[1-(3-cyano-4-methoxybenzyl)-3,6-dimethyl-2-oxo-1,2-dihydro-pyridin-4-yl]oxy}methyl)benzyl]urea], the pIC50 was 8.22.

Consider `COCCNC(=O)c1ccc(C)c(-n2c(C)cc(OCc3ccccc3CNC(=O)Nc3cc(C(C)(C)C)nn3-c3ccc(Cl)c(O)c3)c(Cl)c2=O)c1` [Example 230, 3-{4-[(2-{[({[3-tert-butyl-1-(4-chloro-3-hydroxyphenyl)-1H-pyrazol-5-yl]amino}carbonyl)amino]methyl}benzyl)oxy]-3-chloro-6-methyl-2-oxopyridin-1(2H)-yl}-N-(2-methoxyethyl)-4-methylbenzamide], for which the pIC50 is 8.72.

For `COc1ccc(Cn2c(C)cc(OCc3ccccc3CNC(=O)Nc3cc(C(C)(C)C)nn3-c3ccc(Cl)c(O)c3)c(Cl)c2=O)cc1` [Example 257, 1-[3-tert-butyl-1-(4-chloro-3-hydroxyphenyl)-1H-pyrazol-5-yl]-3-[2-({[3-chloro-1-(4-methoxybenzyl)-6-methyl-2-oxo-1,2-dihydro-pyridin-4-yl]oxy}methyl)benzyl]urea], the pIC50 was 8.33.
